Values joined by “and” are separate entries in the source; they are usually repeats but may differ in a detail not shown here. Equal values may be shown once.
Key:
[1] = tested on: intracranially implanted human glioblastoma U251; experiment: Antitumor activity against intracranially implanted U251 glioblastoma in NCr-nu mice (RP-36); format: in vivo; settings: for DAYS OF DEATH: individual animals
Method: The treatment schedule of the intracranially implanted U251 glioblastoma cells was iv, once daily, every sixth day for three treatments (q6d×3), beginning on day four post-implant. […] For the intracranially implanted studies, the compounds were evaluated based on their ability to increase the life span of the animals. The positive control used for both of these tumor models was nitrosourea.
The oversight committee was the Southern Research Institutional Animal Care and Use Committee; the protocol used was IACUC No. 96-8-50.
Product (Ia) was prepared in 5% ethanol, 5% tween 80, 90% D5W
Product (Ia) was administered in 0.4 ml/mouse based on a total body weight average.
Nitrosourea was administered 0.1 ml/10 g of body weight.
Any intracranially implanted animal that appeared to be moribund was euthanized for humane purposes. Since efficacy studies fall within this category of basic research, experiment termination was based on resultants that were determined to be optimal.
Six to eight week old athymic NCr-nu female mice were used for the intracranially implanted U251 trials.
The cells were injected into the cerebrum to the right of the midline with a 25 gauge, ⅜ inch, stainless steel needle. Cultured cells were used for the U251 experiment (RP-36). The treatment schedule was q6d×3, iv, beginning on day four, post-implant. […] The treatment schedule was q4d×3, iv, beginning on day two, post-implant. Nitrosourea was given in each experiment for comparative purposes because of its known activity against CNS tumors.

[2] = Single i.v. bolus pharmacokinetic study in mice: plasma and brain levels by LC-MS/MS; format: in vivo, female C3H/HeN mice; settings: mouse; for Plasma product (Ic) concentration: individual animals IV1-IV4
Method: Analytical Results Obtained from a Single i.v. Bolus Pharmacokinetic Study in Mice.
Groups of female C3H/HeN mice received the product by an intravenous route as a bolus at a dose level of 40 mg.kg^−1, equivalent to 120 mg.m^−2. Blood and brain samples were obtained from all dosed animals sacrificed at intervals up to 72 hours post dose. Brain and corresponding plasma samples were assayed for product (Ia) content by an LC-MS/MS assay.
2.25 mg.ml^−1 solution containing 5% Polysorbate 80, 5% ethanol, and 90% of an aqueous 5% glucose solution.
Fifty-six female C3H/HeN mice, each weighing ca 20 g, were each administered formulated product II by i.v. bolus via the tail vein at an injection volume of 0.4 ml to give a total dose of 40 mg.kg^−1.
Blood by cardiac puncture, and liver and brain by dissection after CO2 sacrifice.
Whole blood was collected in heparinised tubes, and corresponding plasma samples were obtained by centrifugation, and frozen immediately at −20° C. Tissues were blotted, weighed, and frozen immediately at −20° C. All samples were dispatched frozen for analysis. Upon receipt, samples were stored frozen at approximately −18° C. pending analysis.
LC-MS/MS (Sciex API III plus) in turbo-ionspray mode.
75×4.6 mm Supelcosil ABZ plus (3 μm).
Acetonitrile/methanol/ammonium acetate (10 mM); 40/25/35 v/v/v.
Plasma: Added 100 μl of acetonitrile to sample (50 μl). Vortexed, centrifuged, removed supernatant, added 100 μl of mobile phase and injected 150 μl .
Brain: Added 100 μl of acetonitrile to homogenised sample (100 mg of a 1:1 w/w brain with water homogenate) and vortexed. Added 1 ml of diethyl ether, vortexed, centrifuged, removed organic layer, and dried under N2. Reconstituted in 200 μl of mobile phase and injected 150 μl.
Plasma: Nine at concentrations of 5, 10, 20, 50, 100, 200, 300, 400 & 500 ng.ml^−1 (product Ia). Prepared by adding suitable aliquots of the product (concentrations =0.1, 1 or 10 μg.ml^−1) in ethanol to 0.5 ml aliquots of mouse plasma. Each sample was vortexed following drug addition; a 50 μl aliquot was then removed for assay.
Brain: Eleven at concentrations of 10, 20, 30, 100, 200, 300, 400, 500, 1000, 2500 & 5000 ng.g^−1 in homogenised mouse brain (1:1 w/w brain with water). Prepared by adding suitable aliquots of the product (concentrations=1, 10 or 100 μg.ml-^−1) in ethanol to 0.5, 1, 3 or 4 g of homogenised mouse brain. Each sample was vortexed following drug addition and a 100 mg aliquot was then removed for assay.
A biexponential equation was fitted to the profiles using an interactive linear least-square algorithm as part of the SIPHAR package.

[3] = 13.4 mg/kg/dose IV Q6D×3(4), listed as Product I(a)
[4] = 13.4 mg/kg/dose IV Q6D×3(4), listed as product (Ia)
[5] = 20.0 mg/kg/dose IV Q6D×3(4), listed as Product I(a)
[6] = 20.0 mg/kg/dose IV Q6D×3(4), listed as product (Ia)
[7] = 30.0 mg/kg/dose IV Q6D×3(4), listed as Product I(a)
[8] = 30.0 mg/kg/dose IV Q6D×3(4), listed as product (Ia)
[9] = plasma, i.v. 40 mg.kg^−1, calculated from values ≧b.l.q. of 20 ng.ml^−1
[10] = plasma, i.v. 40 mg.kg^−1, calculated from values ≧l.o.d. of 4 ng.ml^−1

## CO[C@H]1C(=O)[C@]2(C)[C@@H](OC)C[C@H]3OC[C@@]3(OC(C)=O)[C@H]2[C@H](OC(=O)c2ccccc2)[C@]2(O)C[C@H](OC(=O)[C@H](O)[C@@H](NC(=O)OC(C)(C)C)c3ccccc3)C(C)=C1C2(C)C [Product (Ia), 4α-acetoxy-2α-benzoyloxy-5β, 20-epoxy-1β-hydroxy-7β, 10β-dimethoxy-9-oxo-11-taxen-13α-yl (2R,3S)-3 tert-butoxycarbonylamino-2-hydroxy-3-phenylpropionate]
[1]; 13.4 mg/kg/dose IV Q6D×3(4)
  MEDIAN DAY OF DEATH: 83.0 days
  DAYS OF DEATH: 69 day (2×) and 83 day (4×) and 122 day
[1]; [3]
  122-DAY SURV./TOTAL: 3/10
  % ILS: +144%
[1]; [4]
  122-DAY SURV./TOTAL: three of ten
  % ILS: 144%
[1]; 20.0 mg/kg/dose IV Q6D×3(4)
  MEDIAN DAY OF DEATH: 103.0 days
  DAYS OF DEATH: 58 day and 98 day and 100 day and 106 day (2×) and 122 day
[1]; [5]
  122-DAY SURV./TOTAL: 4/10
  % ILS: +202%
[1]; [6]
  122-DAY SURV./TOTAL: four of ten
  % ILS: 202%
[1]; 30.0 mg/kg/dose IV Q6D×3(4)
  MEDIAN DAY OF DEATH: 94.0 days
  DAYS OF DEATH: 21 days and 34 days and 94 days and 98 days and 103 days
[1]; [7]
  122-DAY SURV./TOTAL: 5/10
  % ILS: +176%
[1]; [8]
  122-DAY SURV./TOTAL: five of ten
  % ILS: 176%
[1]; iv q6d×3
  activity against intracranially implanted U251 glioblastoma: quite active
[1]; iv q6d×3, U251 experiment RP-36
  MTD: 20 mg/kg/dose
[2]; brain, i.v. 40 mg.kg^−1
  AUC0-72h: *the corresponding AUC0-72h = 549.7 h.μg.g^−1
  Terminal T½: 31.4 h
[2]; brain, i.v. 40 mg.kg^−1, mean data, extrapolated from 72 h, listed as product (Ic)
  AUC0-∞: 787.g* h.μg.g^−1
[2]; i.v. 40 mg.kg^−1
  Mean total plasma clearance: 1.3 I.h^−1.kg^−1
  levels in the brain relative to those in the plasma (on the basis of AUC0∞ values): about twenty
  time post dose up to which plasma levels persisted above the limit of accurate quantification (20 ng.ml^−1): up to 14 h
  time post dose up to which plasma levels were consistently above the limit of detection (4 ng.ml^−1): up to 24 h
[2]; i.v. 40 mg.kg^−1, 2 min after dose
  Plasma product (Ic) concentration: 52987 ng/mL and 45942 ng/mL and 49607 ng/mL and 38994 ng/mL
[2]; i.v. 40 mg.kg^−1, 2 min after dose, mean of IV1-IV4
  Plasma product (Ic) concentration, MEAN: 46882 ng/mL
[2]; i.v. 40 mg.kg^−1, 5 min after dose
  Plasma product (Ic) concentration: 36734 ng/mL and 33538 ng/mL and 32077 ng/mL and 34903 ng/mL
[2]; i.v. 40 mg.kg^−1, 5 min after dose, mean of IV1-IV4
  Plasma product (Ic) concentration, MEAN: 34313 ng/mL
[2]; i.v. 40 mg.kg^−1, 15 min after dose
  Plasma product (Ic) concentration: 20493 ng/mL and 20897 ng/mL and 21051 ng/mL and 19459 ng/mL
[2]; i.v. 40 mg.kg^−1, 15 min after dose, mean of IV1-IV4
  Plasma product (Ic) concentration, MEAN: 20475 ng/mL
[2]; i.v. 40 mg.kg^−1, 0.5 h after dose
  Plasma product (Ic) concentration: 10765 ng/mL and 10344 ng/mL and 9170 ng/mL and 11232 ng/mL
[2]; i.v. 40 mg.kg^−1, 0.5 h after dose, mean of IV1-IV4
  Plasma product (Ic) concentration, MEAN: 10378 ng/mL
[2]; i.v. 40 mg.kg^−1, 0.75 h after dose
  Plasma product (Ic) concentration: 7133 ng/mL and 10948 ng/mL and 8121 ng/mL and 10148 ng/mL
[2]; i.v. 40 mg.kg^−1, 0.75 h after dose, mean of IV1-IV4
  Plasma product (Ic) concentration, MEAN: 9087 ng/mL
[2]; i.v. 40 mg.kg^−1, 1 h after dose
  Plasma product (Ic) concentration: 6017 ng/mL and 7423 ng/mL and 6693 ng/mL and 6079 ng/mL
[2]; i.v. 40 mg.kg^−1, 1 h after dose, mean of IV1-IV4
  Plasma product (Ic) concentration, MEAN: 6553 ng/mL
[2]; i.v. 40 mg.kg^−1, 4 h after dose
  Plasma product (Ic) concentration: 1072 ng/mL and 1110 ng/mL and 835 ng/mL and 830 ng/mL
[2]; i.v. 40 mg.kg^−1, 4 h after dose, mean of IV1-IV4
  Plasma product (Ic) concentration, MEAN: 962 ng/mL
[2]; i.v. 40 mg.kg^−1, 6 h after dose
  Plasma product (Ic) concentration: 449 ng/mL and 316 ng/mL and 346 ng/mL and 336 ng/mL
[2]; i.v. 40 mg.kg^−1, 6 h after dose, mean of IV1-IV4
  Plasma product (Ic) concentration, MEAN: 362 ng/mL
[2]; i.v. 40 mg.kg^−1, 8 h after dose
  Plasma product (Ic) concentration: 204 ng/mL and 199 ng/mL and 195 ng/mL and 154 ng/mL
[2]; i.v. 40 mg.kg^−1, 8 h after dose, mean of IV1-IV4
  Plasma product (Ic) concentration, MEAN: 188 ng/mL
[2]; i.v. 40 mg.kg^−1, 14 h after dose
  Plasma product (Ic) concentration: 65 ng/mL and 56 ng/mL and 50 ng/mL and 52 ng/mL
[2]; i.v. 40 mg.kg^−1, 14 h after dose, mean of IV1-IV4
  Plasma product (Ic) concentration, MEAN: 56 ng/mL
[2]; i.v. 40 mg.kg^−1, 24 h after dose, blq = below limit of accurate quantification (20 ng.ml^−1)
  Plasma product (Ic) concentration: ~18(blq) ng.ml^−1 and ~15(blq) ng.ml^−1 (2×) and ~16(blq) ng.ml^−1
[2]; i.v. 40 mg.kg^−1, 24 h after dose, mean of IV1-IV4 (all blq)
  Plasma product (Ic) concentration, MEAN: 16 ng/mL
[2]; i.v. 40 mg.kg^−1, 48 h after dose, n.d. = not detected (≦l.o.d. of 4 ng.ml^−1)
  Plasma product (Ic) concentration: ~4(blq) ng.ml^−1
[2]; i.v. 40 mg.kg^−1, 48 h after dose, mean of IV1-IV4 (blq / n.d.)
  Plasma product (Ic) concentration, MEAN: 2 ng/mL
[2]; i.v. 40 mg.kg^−1, at 14 h
  brain level, peak: 9.1 µg/g
[2]; i.v. 40 mg.kg^−1, last sampling time, 72 h
  brain level: 5.3 µg/g
[2]; i.v. 40 mg.kg^−1, peak at 2 minutes
  plasma level, peak (mean): 46900 ng/mL
[2]; i.v. 40 mg.kg^−1, time after dose printed as — (between 1 h and 4 h)
  Plasma product (Ic) concentration: 4633 ng/mL and 4337 ng/mL and 4600 ng/mL and 3564 ng/mL
[2]; i.v. 40 mg.kg^−1, time after dose printed as — (between 1 h and 4 h), mean of IV1-IV4
  Plasma product (Ic) concentration, MEAN: 4283 ng/mL
[2]; i.v. 40 mg.kg^−1, within 4 h
  plasma level: less than 1 μg.ml^−1
[2]; post-i.v. administration
  penetration of the blood brain barrier: appeared to readily penetrate the blood brain barrier
[2]; [9]
  ClT (total plasma clearance): 1.3 1.h^−1.kg^−1
  Initial T½: 0.2 h
  Terminal T½: 2.0 h
  Vdss: 2.4 1.kg^−1
[2]; [10]
  ClT (total plasma clearance): 1.3 1.h^−1.kg^−1
  Initial T½: 0.7 h
  Terminal T½: 6.2 h
  Vdss: 1.9 1.kg^−1
